# Experimental data: PubChem BioAssay AID256 (DTP/NCI, 2004)
# “And” between values parts separate entries of the source, which are not always exact repeats. Equal entries are not always repeated. Toxic doses and inconclusive results are not listed.
# System: CD2F1 mice, L1210 leukemia ip, survival T/C
# Assay: NCI In Vivo Anticancer Drug Screen. Data for tumor model L1210 Leukemia (intraperitoneal) in CD2F1 (CDF1) mice
# Conditions: higher = longer survival
# Summary of the method: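 Ratio T/C, where T is the treated-group value and C the vehicle-dosed control value, from mice implanted with a transplantable tumor.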
# [1] = endpoint: mean survival time, dose: 25.0 mg/kg/injection, schedule: Q01DX009 (ip), vehicle: saline with Tween-80
# [2] = endpoint: mean survival time, dose: 50.0 mg/kg/injection, schedule: Q01DX009 (ip), vehicle: saline with Tween-80
# [3] = endpoint: mean survival time, dose: 100.0 mg/kg/injection, schedule: Q01DX009 (ip), vehicle: saline with Tween-80
# [4] = endpoint: mean survival time, dose: 100.0 mg/kg/injection, schedule: Q04DX003 (ip), vehicle: saline with Tween-80
# [5] = endpoint: mean survival time, dose: 200.0 mg/kg/injection, schedule: Q01DX009 (ip), vehicle: saline with Tween-80
# [6] = endpoint: mean survival time, dose: 400.0 mg/kg/injection, schedule: Q01DX009 (ip), vehicle: saline with Tween-80
# [7] = endpoint: mean survival time, dose: 100.0 mg/kg/injection, schedule: Q04DX003 (ip), vehicle: saline
# [8] = endpoint: mean survival time, dose: 200.0 mg/kg/injection, schedule: Q04DX003 (ip), vehicle: saline
# [9] = endpoint: mean survival time, dose: 400.0 mg/kg/injection, schedule: Q04DX003 (ip), vehicle: saline
# [10] = endpoint: mean survival time, dose: 200.0 mg/kg/injection, schedule: Q04DX003 (ip), vehicle: saline with Tween-80
# [11] = endpoint: mean survival time, dose: 400.0 mg/kg/injection, schedule: Q04DX003 (ip), vehicle: saline with Tween-80
# [12] = endpoint: mean survival time, dose: 100.0 mg/kg/injection, schedule: Q01DX001 (ip), vehicle: saline
# [13] = endpoint: mean survival time, dose: 200.0 mg/kg/injection, schedule: Q01DX001 (ip), vehicle: saline
# [14] = endpoint: mean survival time, dose: 400.0 mg/kg/injection, schedule: Q01DX001 (ip), vehicle: saline
# [15] = endpoint: mean survival time, dose: 100.0 mg/kg/injection, schedule: Q04DX002 (ip), vehicle: saline with Tween-80
# [16] = endpoint: mean survival time, dose: 200.0 mg/kg/injection, schedule: Q04DX002 (ip), vehicle: saline with Tween-80
structure (smiles),measurement,setting,value
COc1cccc2c1C(=O)c1c(OC)c(C)cc(OC)c1C2=O,T/C,"endpoint: mean survival time, dose: 12.5 mg/kg/injection, schedule: Q01DX009 (ip), vehicle: other",113 % of control
same,T/C,"endpoint: mean survival time, dose: 25.0 mg/kg/injection, schedule: Q01DX009 (ip), vehicle: other",110 % of control
same,T/C,"endpoint: mean survival time, dose: 50.0 mg/kg/injection, schedule: Q01DX009 (ip), vehicle: other",110 % of control
same,T/C,"endpoint: mean survival time, dose: 100.0 mg/kg/injection, schedule: Q01DX009 (ip), vehicle: other",110 % of control
same,T/C,"endpoint: mean survival time, dose: 200.0 mg/kg/injection, schedule: Q01DX009 (ip), vehicle: other",117 % of control
NC1CCCCC1CC1CCCCC1 (centres undefined),T/C,[1],106 % of control
same,T/C,"endpoint: mean survival time, dose: 25.0 mg/kg/injection, schedule: Q04DX003 (ip), vehicle: saline with Tween-80",97 % of control
same,T/C,[2],103 % of control
same,T/C,"endpoint: mean survival time, dose: 50.0 mg/kg/injection, schedule: Q04DX003 (ip), vehicle: saline with Tween-80",97 % of control
same,T/C,[3],95 % of control
same,T/C,[4],98 % of control
CCOC(=O)C(C)Sc1nn(C2OC(COC(=O)c3ccccc3)C(OC(=O)c3ccccc3)C2OC(=O)c2ccccc2)c(=O)[nH]c1=O (centres undefined),T/C,"endpoint: mean survival time, dose: 12.5 mg/kg/injection, schedule: Q01DX005 (ip), vehicle: distilled water + Tween-80",97 % of control
same,T/C,"endpoint: mean survival time, dose: 25.0 mg/kg/injection, schedule: Q01DX005 (ip), vehicle: distilled water + Tween-80",97 % of control
same,T/C,"endpoint: mean survival time, dose: 50.0 mg/kg/injection, schedule: Q01DX005 (ip), vehicle: distilled water + Tween-80",95 % of control
same,T/C,"endpoint: mean survival time, dose: 100.0 mg/kg/injection, schedule: Q01DX005 (ip), vehicle: distilled water + Tween-80",95 % of control
same,T/C,"endpoint: mean survival time, dose: 200.0 mg/kg/injection, schedule: Q01DX005 (ip), vehicle: distilled water + Tween-80",89 % of control
c1nc(Sc2ncnc3nc[nH]c23)c2[nH]cnc2n1,T/C,"endpoint: mean survival time, dose: 75.0 mg/kg/injection, schedule: Q01DX009 (ip), vehicle: saline with Tween-80",123 % of control
same,T/C,"endpoint: mean survival time, dose: 300.0 mg/kg/injection, schedule: Q01DX009 (ip), vehicle: saline with Tween-80",169 % of control
O=S(=O)(Cc1ccccc1)CC(Br)CBr (centres undefined),T/C,"endpoint: mean survival time, dose: 100.0 mg/kg/injection, schedule: Q01DX001 (ip), vehicle: Klucel (hydroxypropylcellulose) (HPC)",91 % of control
same,T/C,"endpoint: mean survival time, dose: 200.0 mg/kg/injection, schedule: Q01DX001 (ip), vehicle: Klucel (hydroxypropylcellulose) (HPC)",103 % of control
same,T/C,"endpoint: mean survival time, dose: 400.0 mg/kg/injection, schedule: Q01DX001 (ip), vehicle: Klucel (hydroxypropylcellulose) (HPC)",106 % of control
N#C/C(=C\c1cccc(OCc2ccccc2)c1)c1ccc([N+](=O)[O-])cc1,T/C,"endpoint: mean survival time, dose: 6.25 mg/kg/injection, schedule: Q04DX003 (ip), vehicle: saline",98 % of control
same,T/C,"endpoint: mean survival time, dose: 12.5 mg/kg/injection, schedule: Q04DX003 (ip), vehicle: saline",98 % of control
same,T/C,"endpoint: mean survival time, dose: 25.0 mg/kg/injection, schedule: Q04DX003 (ip), vehicle: saline",102 % of control
CCCCCCCCCCCCCCCCOP(=O)(O)OCCCCCCCCCCCCCCCC,T/C,[1],96 % of control
same,T/C,[2],102 % of control
same,T/C,[3],95 % of control
CNC(=O)/C(=C\c1ccccc1)NC(C)=O,T/C,[3],103 % of control
same,T/C,[5],98 % of control
same,T/C,[6],98 % of control
N#Cc1ccc(CO)cc1Br,T/C,[7],97 % of control
same,T/C,[8],90 % of control
same,T/C,[9],92 % of control
CCOC1OC(C(O)CO)C(O)C(O)C1O (centres undefined),T/C,[7],101 % of control
same,T/C,[8],103 % of control
same,T/C,[9],101 % of control
CCC1C(=O)NC(=O)NC1=O,T/C,[3],96 % of control
same,T/C,[4],98 % of control
same,T/C,[5],94 % of control
same,T/C,[10],94 % of control
same,T/C,[6],93 % of control
same,T/C,[11],96 % of control
O=C(C[n+]1cc2ccccc2cc1/C=N/O)c1ccccc1,T/C,[2],98 % of control
same,T/C,[3],93 % of control
same,T/C,[4],95 % of control
same,T/C,[5],96 % of control
same,T/C,[10],95 % of control
CC(C)=CCC/C(C)=C/CN,T/C,"endpoint: mean survival time, dose: 25.0 mg/kg/injection, schedule: Q01DX009 (ip), vehicle: saline",98 % of control
same,T/C,[7],86 % of control
O=C1C(Br)CCC1C(O)(C(F)(F)F)C(F)(F)F (centres undefined),T/C,[2],98 % of control
same,T/C,[3],102 % of control
same,T/C,[4],92 % of control
same,T/C,[5],104 % of control
same,T/C,[10],91 % of control
COC(=O)c1nc2ccccc2nc1C(=O)OC,T/C,[3],103 % of control
same,T/C,[4],100 % of control
same,T/C,[5],103 % of control
same,T/C,[10],94 % of control
same,T/C,[6],102 % of control
same,T/C,[11],96 % of control
CC1=N/C(=C/c2ccccc2)C(=O)O1,T/C,[3],97 % of control
same,T/C,[5],98 % of control
same,T/C,[6],88 % of control
COc1ccc(NC(=O)Nc2ccc(Br)cc2)cc1,T/C,[3],88 % of control
same,T/C,[4],96 % of control
same,T/C,[5],89 % of control
same,T/C,[10],98 % of control
same,T/C,[6],89 % of control
O=C(CCl)n1nc(Cl)c2ccc([N+](=O)[O-])cc21,T/C,[12],98 % of control
same,T/C,[13],98 % of control
COc1cc2c(cc1OC)C(Cc1ccc([N+](=O)[O-])cc1)=NCC2,T/C,[12],96 % of control
same,T/C,[13],96 % of control
same,T/C,[14],102 % of control
CN1CCC(c2ccccc2)(c2ccccc2)OC1c1ccccc1 (centres undefined),T/C,[4],101 % of control
same,T/C,[10],100 % of control
same,T/C,[11],94 % of control
CCCCCCCCCCCCCCCCOC(=O)Nc1ccc(S(=O)(=O)N(CCC)CCC)cc1,T/C,[12],94 % of control
same,T/C,[13],96 % of control
same,T/C,[14],92 % of control
COC(=O)/C([O-])=C(\C(=O)OC)[n+]1cc(Br)cc2ccccc21,T/C,[15],101 % of control
same,T/C,[16],104 % of control
NCc1cccc([N+](=O)[O-])c1,T/C,[7],106 % of control
same,T/C,[8],109 % of control
same,T/C,[9],98 % of control
O=c1ccnc(C(F)(F)F)[nH]1,T/C,"endpoint: mean survival time, dose: 100.0 mg/kg/injection, schedule: Q01DX009 (ip), vehicle: saline",101 % of control
same,T/C,"endpoint: mean survival time, dose: 200.0 mg/kg/injection, schedule: Q01DX009 (ip), vehicle: saline",95 % of control
CCCCC(CC)(CO)C(=O)NN (centres undefined),T/C,[4],97 % of control
same,T/C,[10],100 % of control
same,T/C,[11],97 % of control
CC(=O)Oc1ccc(N2C(=O)C=CC2=O)cc1 (tested in a mixture with another compound),T/C,[3],95 % of control
same,T/C,[4],91 % of control
same,T/C,[5],91 % of control
same,T/C,[10],90 % of control
same,T/C,[6],91 % of control
same,T/C,[11],87 % of control
CCCCOC(=O)c1ccc(Cl)c(Cl)c1,T/C,"endpoint: mean survival time, dose: 100.0 mg/kg/injection, schedule: Q04DX003 (ip), vehicle: Klucel (hydroxypropylcellulose) (HPC)",92 % of control
same,T/C,"endpoint: mean survival time, dose: 200.0 mg/kg/injection, schedule: Q04DX003 (ip), vehicle: Klucel (hydroxypropylcellulose) (HPC)",96 % of control
same,T/C,"endpoint: mean survival time, dose: 400.0 mg/kg/injection, schedule: Q04DX003 (ip), vehicle: Klucel (hydroxypropylcellulose) (HPC)",103 % of control
CC12CCC(O)CC1=CCC1C2CCC2(C)C(O)CCC12 (centres undefined),T/C,"endpoint: mean survival time, dose: 100.0 mg/kg/injection, schedule: Q01DX001 (ip), vehicle: saline with Tween-80",97 % of control
same,T/C,"endpoint: mean survival time, dose: 200.0 mg/kg/injection, schedule: Q01DX001 (ip), vehicle: saline with Tween-80",90 % of control
same,T/C,"endpoint: mean survival time, dose: 400.0 mg/kg/injection, schedule: Q01DX001 (ip), vehicle: saline with Tween-80",91 % of control
CC(=O)Nc1ccc(C(=O)O)cc1,T/C,[4],96 % of control
same,T/C,[10],98 % of control
same,T/C,[11],100 % of control
O=C(O)COc1cc(F)c(Cl)cc1F,T/C,[15],102 % of control
same,T/C,[16],105 % of control
same,T/C,"endpoint: mean survival time, dose: 400.0 mg/kg/injection, schedule: Q04DX002 (ip), vehicle: saline with Tween-80",109 % of control
O=C(Nc1ccccc1)OC1CCCCC1,T/C,[4],101 % of control
same,T/C,[10],100 % of control
same,T/C,[11],97 % of control
CC/C(=C/c1ccc(OC)cc1)[N+](=O)[O-],T/C,"endpoint: mean survival time, dose: 12.5 mg/kg/injection, schedule: Q01DX009 (ip), vehicle: Klucel (hydroxypropylcellulose) (HPC)",113 % of control
same,T/C,"endpoint: mean survival time, dose: 25.0 mg/kg/injection, schedule: Q01DX009 (ip), vehicle: Klucel (hydroxypropylcellulose) (HPC)",102 % of control
same,T/C,"endpoint: mean survival time, dose: 50.0 mg/kg/injection, schedule: Q01DX009 (ip), vehicle: Klucel (hydroxypropylcellulose) (HPC)",94 % of control
Brc1c(NC2=NCCN2)ccc2nccnc12,T/C,"endpoint: median survival time, dose: 1.56 mg/kg/injection, schedule: Q01DX009 (ip), vehicle: saline",102 % of control
same,T/C,"endpoint: median survival time, dose: 3.12 mg/kg/injection, schedule: Q01DX009 (ip), vehicle: saline",96 % of control and 111 % of control
same,T/C,"endpoint: median survival time, dose: 6.25 mg/kg/injection, schedule: Q01DX009 (ip), vehicle: saline",115 % of control and 119 % of control and 109 % of control
same,T/C,"endpoint: median survival time, dose: 100.0 mg/kg/injection, schedule: Q01DX009 (ip), vehicle: saline",118 % of control
CCc1c(Cl)c(C)c(Cl)c(O)c1Cl,T/C,[4],96 % of control
same,T/C,[10],88 % of control
